Test results as given in patent US20260355196A1, “INHIBITORS AND DEGRADERS OF PIP4K PROTEIN” (Larkspur Biosciences, Inc., priority 2023, published 2026).

biological target: T1, PIP4K2C (Homo sapiens, UniProt Q8TBX8); assay: HiBiT PIP4K2C degradation assay in MOLT-4 cells (endogenous PIP4K2C C-terminally tagged with HiBiT); type: cell-based; parameters: untagged in primary human PBMCs and monocyte-derived dendritic cells; conditions: 6 hours of incubation time, rather than 24 hours; MOLT-4, top concentration 10 micromolar; read-out: HiBIT-degradation MOLT4 PIP4k2C DC50 (6 hours, marked *)
T1 sequence (Q8TBX8 1-421): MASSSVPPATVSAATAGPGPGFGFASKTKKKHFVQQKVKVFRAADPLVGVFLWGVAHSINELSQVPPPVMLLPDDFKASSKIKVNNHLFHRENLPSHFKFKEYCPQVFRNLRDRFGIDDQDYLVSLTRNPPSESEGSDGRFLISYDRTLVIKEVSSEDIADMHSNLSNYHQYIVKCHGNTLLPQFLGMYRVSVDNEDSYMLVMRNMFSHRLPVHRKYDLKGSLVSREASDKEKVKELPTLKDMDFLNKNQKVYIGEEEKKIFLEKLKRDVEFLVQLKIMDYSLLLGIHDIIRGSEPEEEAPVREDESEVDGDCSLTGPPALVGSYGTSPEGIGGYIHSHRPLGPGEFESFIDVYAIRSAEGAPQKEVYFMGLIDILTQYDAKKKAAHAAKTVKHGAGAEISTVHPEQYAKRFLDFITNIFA
In short: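 Cells are plated onto compound dilutions (10 points, 3-fold, top 10 micromolar) and incubated 24 or 6 hours at 37 C. Lytic HiBiT detection then quantifies tagged endogenous PIP4K2C in MOLT-4, and a Hill fit yields DC50.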

SMILES | DC50
Cn1nc(C2CCC(=O)NC2=O)c2ccc(N3CCN(CC4CCN(C(=O)O[C@H]5CC[C@H](Nc6ncc(F)c(-c7cccc(-c8ccccc8)c7)n6)CC5)CC4)CC3)cc21 (stereo partly drawn) [Compound 643, trans-4-((4-([1,1′-biphenyl]-3-yl)-5-fluoropyrimidin-2-yl)amino)cyclohexyl 4-((4-(3-(2,6-dioxopiperidin-3-yl)-1-methyl-1H-indazol-6-yl)piperazin-1-yl)methyl)piperidine-1-carboxylate] | < 500 nM
O=C1CCC(Nc2ccc(C3CCN(C[C@H]4CC[C@H](COC(=O)N5CCC(Nc6ncc(F)c(-c7cccc(-n8ccccc8=O)c7)n6)CC5)CC4)CC3)c(F)c2)C(=O)N1 (stereo partly drawn) [Compound 644, trans-(4-((4-(4-((2,6-dioxopiperidin-3-yl)amino)-2-fluorophenyl)piperidin-1-yl)methyl)cyclohexyl)methyl 4-((5-fluoro-4-(3-(2-oxopyridin-1 (2H)-yl)phenyl)pyrimidin-2-yl)amino)piperidine-1-carboxylate] | < 500 nM
O=C1CCC(Nc2ccc(N3CCC(N4CCC(C(=O)N[C@H]5CC[C@H](Nc6ncc(F)c(-c7cccc(N8CCOCC8)c7)n6)CC5)CC4)CC3)c(F)c2)C(=O)N1 (stereo partly drawn) [Compound 645, trans-1′-(4-((2,6-dioxopiperidin-3-yl)amino)-2-fluorophenyl)-N-(4-((5-fluoro-4-(3-morpholinophenyl)pyrimidin-2-yl)amino)cyclohexyl)-[1,4′-bipiperidine]-4-carboxamide] | < 500 nM
Cn1nc(C2CCC(=O)NC2=O)c2ccc(C3CCN(CC4(O)CCN(C(=O)O[C@H]5CC[C@H](Nc6ncc(F)c(-c7cccc(-c8ccccc8)c7)n6)CC5)CC4)CC3)cc21 (stereo partly drawn) [Compound 646, trans-4-((4-([1,1′-biphenyl]-3-yl)-5-fluoropyrimidin-2-yl)amino)cyclohexyl 4-((4-(3-(2,6-dioxopiperidin-3-yl)-1-methyl-1H-indazol-6-yl)piperidin-1-yl)methyl)-4-hydroxypiperidine-1-carboxylate] | < 500 nM
Cn1nc(C2CCC(=O)NC2=O)c2ccc(C3CCN(CC4CCN(C(=O)O[C@H]5CC[C@H](Nc6ncc(F)c(-c7cccc(-c8ccccc8)c7)n6)CC5)CC4)CC3)cc21 (stereo partly drawn) [Compound 647, trans-4-((4-([1,1′-biphenyl]-3-yl)-5-fluoropyrimidin-2-yl)amino)cyclohexyl 4-((4-(3-(2,6-dioxopiperidin-3-yl)-1-methyl-1H-indazol-6-yl)piperidin-1-yl)methyl)piperidine-1-carboxylate] | < 500 nM
O=C1CCC(Nc2ccc(C3CCN(C4CCN(C(=O)O[C@H]5CC[C@H](Nc6ncc(F)c(-c7cccc(-n8ccccc8=O)c7)n6)CC5)CC4(F)F)CC3)c(F)c2)C(=O)N1 (stereo partly drawn) [Compound 648, trans-4-((5-fluoro-4-(3-(2-oxopyridin-1 (2H)-yl)phenyl)pyrimidin-2-yl)amino)cyclohexyl 4-(4-((2,6-dioxopiperidin-3-yl)amino)-2-fluorophenyl)-3′,3′-difluoro-[1,4′-bipiperidine]-1′-carboxylate] | > 5000 nM
O=C1CCC(Nc2ccc(N3CCC(N4CCC(C(=O)N[C@H]5CC[C@H](Nc6ncc(F)c(-c7cccc(-c8ccccc8)c7)n6)CC5)CC4)CC3)c(F)c2)C(=O)N1 (stereo partly drawn) [Compound 649, trans-N-(4-((4-([1,1′-biphenyl]-3-yl)-5-fluoropyrimidin-2-yl)amino)cyclohexyl)-1′-(4-((2,6-dioxopiperidin-3-yl)amino)-2-fluorophenyl)-[1,4′-bipiperidine]-4-carboxamide] | < 500 nM

Next, values leading:

DC50 | SMILES
> 5000 nM | O=C1CCC(Nc2ccc(N3CCN([C@H]4CC[C@H](CC(=O)N5CCC(Nc6ncc(F)c(-c7cccc(-n8ccccc8=O)c7)n6)CC5)CC4)CC3)c(F)c2)C(=O)N1 (stereo partly drawn) [Compound 650, trans-3-((3-fluoro-4-(4-(4-(2-(4-((5-fluoro-4-(3-(2-oxopyridin-1 (2H)-yl)phenyl)pyrimidin-2-yl)amino)piperidin-1-yl)-2-oxoethyl)cyclohexyl)piperazin-1-yl)phenyl)amino)piperidine-2,6-dione]
< 500 nM | O=C1CCC(Nc2ccc(C3CCN(C4CCN(C(=O)O[C@H]5CC[C@H](Nc6ncc(F)c(-c7cccc(-c8ccccc8)c7)n6)CC5)CC4)CC3)c(F)c2)C(=O)N1 (stereo partly drawn) [Compound 651, trans-4-((4-([1,1′-biphenyl]-3-yl)-5-fluoropyrimidin-2-yl)amino)cyclohexyl 4-(4-((2,6-dioxopiperidin-3-yl)amino)-2-fluorophenyl)-[1,4′-bipiperidine]-1′-carboxylate]
< 500 nM | CN(C(=O)[C@H]1CC[C@H](N2CCC(c3ccc(NC4CCC(=O)NC4=O)cc3F)CC2)CC1)[C@H]1CC[C@H](Nc2ncc(F)c(-c3cccc(-n4ccccc4=O)c3)n2)CC1 (stereo partly drawn) [Compound 653, trans-4-(4-(4-((2,6-dioxopiperidin-3-yl)amino)-2-fluorophenyl)piperidin-1-yl)-N-((trans)-4-((5-fluoro-4-(3-(2-oxopyridin-1 (2H)-yl)phenyl)pyrimidin-2-yl)amino)cyclohexyl)-N-methylcyclohexane-1-carboxamide]
< 500 nM | O=C1CCC(Nc2ccc(C3CCN(C[C@H]4CC[C@H](C(=O)N5CCC(Nc6ncc(F)c(-c7cccc(-c8ccc[nH]c8=O)c7)n6)CC5)CC4)CC3)c(F)c2)C(=O)N1 (stereo partly drawn) [Compound 654, 3-((3-fluoro-4-(1-(((trans)-4-(4-((5-fluoro-4-(3-(2-oxo-1,2-dihydropyridin-3-yl)phenyl)pyrimidin-2-yl)amino)piperidine-1-carbonyl)cyclohexyl)methyl)piperidin-4-yl)phenyl)amino)piperidine-2,6-dione]
< 500 nM | O=C1CCC(Nc2ccc(N3CCC(N4CCC(C(=O)N[C@H]5CC[C@H](Nc6ncc(F)c(-c7cccc(N8CCOCC8)c7)n6)CC5)CC4)C(F)C3)c(F)c2)C(=O)N1 (stereo partly drawn) [Compound 655, 1′-(4-((2,6-dioxopiperidin-3-yl)amino)-2-fluorophenyl)-3′-fluoro-N-((1r,4r)-4-((5-fluoro-4-(3-morpholinophenyl)pyrimidin-2-yl)amino)cyclohexyl)-[1,4′-bipiperidine]-4-carboxamide]
< 500 nM | O=C1CCC(Nc2ccc(N3CCC(N4CCC(C(=O)N[C@H]5CC[C@H](Nc6ncc(F)c(-c7cccc(-c8ccccc8)c7)n6)CC5)CC4)C(F)C3)c(F)c2)C(=O)N1 (stereo partly drawn) [Compound 656, N-((1r,4r)-4-((4-([1,1′-biphenyl]-3-yl)-5-fluoropyrimidin-2-yl)amino)cyclohexyl)-1′-(4-((2,6-dioxopiperidin-3-yl)amino)-2-fluorophenyl)-3′-fluoro-[1,4′-bipiperidine]-4-carboxamide]
< 500 nM | O=C1CCC(Nc2ccc(C3CCN([C@H]4CC[C@H](NC(=O)[C@H]5CC[C@H](Nc6ncc(F)c(-c7cccc(N8CCOCC8)c7)n6)CC5)CC4)CC3)c(F)c2)C(=O)N1 (stereo partly drawn) [Compound 657, trans-(1r,4R)—N-((1r,4R)-4-(4-(4-((2,6-dioxopiperidin-3-yl)amino)-2-fluorophenyl)piperidin-1-yl)cyclohexyl)-4-((5-fluoro-4-(3-morpholinophenyl)pyrimidin-2-yl)amino)cyclohexane-1-carboxamide]
< 500 nM | O=C1CCC(Nc2ccc(C3CCN([C@H]4CC[C@H](NC(=O)[C@H]5CC[C@H](Nc6ncc(F)c(-c7cccc(-c8ccccc8)c7)n6)CC5)CC4)CC3)c(F)c2)C(=O)N1 (stereo partly drawn) [Compound 658, trans-(1r,4R)-4-((4-([1,1′-biphenyl]-3-yl)-5-fluoropyrimidin-2-yl)amino)-N-((1r,4R)-4-(4-(4-((2,6-dioxopiperidin-3-yl)amino)-2-fluorophenyl)piperidin-1-yl)cyclohexyl)cyclohexane-1-carboxamide]
< 500 nM | O=C1CCC(Nc2ccc(C3CCN([C@H]4CC[C@H](C(=O)N[C@H]5CC[C@H](Nc6ncc(F)c(-c7cccc(N8CCOCC8)c7)n6)CC5)CC4)CC3)c(F)c2)C(=O)N1 (stereo partly drawn) [Compound 659, trans-(1r,4R)-4-(4-(4-((2,6-dioxopiperidin-3-yl)amino)-2-fluorophenyl)piperidin-1-yl)-N-((1r,4R)-4-((5-fluoro-4-(3-morpholinophenyl)pyrimidin-2-yl)amino)cyclohexyl)cyclohexane-1-carboxamide]

same assay, conditions: read-out: HiBIT-degradation MOLT4 PIP4k2C DC50 (6 hours, marked *); 6 hours of incubation time, rather than 24 hours; MOLT-4, top concentration 10 micromolar

DC50 | SMILES
< 500 nM | Cn1nc(C2CCC(=O)NC2=O)c2ccc(N3CCN(CC4(O)CCN(C(=O)O[C@H]5CC[C@H](Nc6ncc(F)c(-c7cccc(-c8ccccc8)c7)n6)CC5)CC4)CC3)cc21 (stereo partly drawn) [Compound 642, trans-4-((4-([1,1′-biphenyl]-3-yl)-5-fluoropyrimidin-2-yl)amino)cyclohexyl 4-((4-(3-(2,6-dioxopiperidin-3-yl)-1-methyl-1H-indazol-6-yl)piperazin-1-yl)methyl)-4-hydroxypiperidine-1-carboxylate]
< 500 nM | O=C1CCC(Nc2ccc(N3CCC(N4CC5(CN(C(=O)O[C@H]6CC[C@H](Nc7ncc(F)c(-c8cccc(-n9ccccc9=O)c8)n7)CC6)C5)C4)CC3)c(F)c2)C(=O)N1 (stereo partly drawn) [Compound 652, (trans)-4-((5-fluoro-4-(3-(2-oxopyridin-1 (2H)-yl)phenyl)pyrimidin-2-yl)amino)cyclohexyl 6-(1-(4-((2,6-dioxopiperidin-3-yl)amino)-2-fluorophenyl)piperidin-4-yl)-2,6-diazaspiro[3.3]heptane-2-carboxylate]
